Entries after “also recorded” stand apart in the source; their conditions may differ. Like-named read-outs stand apart in the source and are kept apart here.
Tests used:
[1] = Supplementary Table S1; cited from earlier work
[2] = seizure ADR frequency in SIDER; ref Campillos et al., 2008; Kuhn et al., 2010; cited from earlier work
[3] = system: rat primary cortical neurons
Protocol: (§1) At DIV28, spontaneous neuronal activity obtained for 30 min in culture solution was defined as the baseline.
(§2) Data analysis was captured using AxIs suite software (Axion Biosystems Inc., version 3.6.2) and further analyzed using GraphPad Prism (version 9.00; GraphPad Software Inc., San Diego, CA). […] An active well should have more than 40% active electrodes. All wells below this threshold were discarded upon these quality criteria. For the downstream statistical analysis, the data on each MEA parameter was first expressed as the ratio of exposed wells (percentage change between baseline and the treatment) and then normalized to the average of the control within the same plate. i.e., Baseline corrected ratios of n= 7 or eight wells were averaged per condition. Each well of the MEA served as its own control, and the changes in the electrical activity elicited by the treatments were expressed as a percentage of that control activity and normalized to the wells treated with the vehicle control dimethyl sulfoxide (DMSO). […] Differences were determined using the non-parametric Wilcoxon Mann Whitney test; p-values below 0.05 were considered significant. Data are expressed as means ± S.E.M.
(§3) Thereafter, based on the effects of vehicles and positive controls, we determined the cut-off points between the different effect zones according to the key parameters selected as described in the previous subsection. The zones were defined as follows. The “no effect” zone reflects parameter changes that are most likely within vehicle variability. The “mild” and “strong” zones are differentiated bidirectionally showing mild and strong effects.
(§4) The respective hazard class was determined by a cumulative scoring of individual parameters using a scoring matrix, which was based on the following three fundamental components: (1) selection of the six key relevant parameters, (2) defining the cutoffs for the level of effect, and (3) defining weighted points per parameter for the level of hazard potential. The scoring matrix concluded with the addition of a weighted point algorithm to discriminate distinct degrees of neuronal hazard. […] The weighted points were defined on the importance of a parameter (and the direction of effect), as well as the identification of an expected hazard for different pharmacological modes of action. The overall hazard score is derived from the sum of all weighted parameters, which could be converted into a specific hazard label. The weighted points and total score range associated with the various hazard labels were optimized using an iterative process.

[4] = ref National library of medicine, Daylimed; cited from earlier work
[5] = established from VigiBase, SIDER, Elsevier drug information and FDA prescribing information
[6] = WHO adverse drug reactions VigiBase; ref Kumlien and Lundberg, 2010; cited from earlier work
[7] = system: rat primary cortical neurons; experiment: MEA hazard scoring in rat primary cortical neuronal cultures; details: for hazard classification in the hazard scoring system: rat primary neurons on MEA; for Area.Under.Cross.Correlation Lower.TI / Area.Under.Cross.Correlation Upper.TI / Burst.Duration...Avg.(s. Lower.TI) / Burst.Duration...Avg.(s. Upper.TI) / Mean.Firing.Rate..Hz. Lower.TI / Mean.Firing.Rate..Hz. Upper.TI / Median.Mean.ISI Lower.TI / Median.Mean.ISI Upper.TI: statistical tolerance interval of the ΔΔ% effect, One-sided interval
Protocol: as §1, §2, §3, §4

| Compound | Free Cmax highest [1] [nM] | SIDER ADR on-/off-label [2] | FDA prescription information at therapeutic dose (Convulsion/ Seizure/Lower the seizure threshold/withdrawal) [4] | Classification* (degree of seizure risk) [5] | Percentage seizures of total number of ADRs [6] [%] | also measured |
| --- | --- | --- | --- | --- | --- | --- |
| CCOC(=O)C1(c2ccccc2)CCN(C)CC1 [Pethidine] | 250 | no frequency information | – | – | – | hazard score group in Figure 3 [3]: Neuro Active to hazard |
| CN1C[C@H](C(=O)N[C@]2(C)O[C@@]3(O)[C@@H]4CCCN4C(=O)[C@H](Cc4ccccc4)N3C2=O)C=C2c3cccc4[nH]cc(c34)C[C@H]21 [Ergotamine] | 0.4 | not found on label | not found on label | Risk | 0.8818 | hazard score group in Figure 3 [3]: Neuro Active to high hazard |
| Cc1ccc(Nc2nccc(N(C)c3ccc4c(C)n(C)nc4c3)n2)cc1S(N)(=O)=O [pazopanib] | 1330 | not found on label | not found on label | Risk | 0.4565 | – |
| O=C(CCCl)NCc1ccccc1 [Beclamide] | – | – | – | Low risk | 0 | hazard classification in the hazard scoring system [7]: high hazard |
| NC(=O)OCC(COC(N)=O)c1ccccc1 [Felbamate] | 181000 | not found on label | on label | Low risk | 9.4112 | – |
| CNS(=O)(=O)Cc1ccc2[nH]cc(CCN(C)C)c2c1 [Sumatriptan] | 388 | rare (<0.1%) | On label | Risk | 0.8281 | – |
| N=C(N)NC(=O)c1nc(Cl)c(N)nc1N [Amiloride] | 74.6 | not found on label | not found on label | No risk | 0.3506 | hazard classification in the hazard scoring system [7]: high seizure risk; firing rate (weighted mean firing rate) in MEA recordings ([7]; rodent cortical neurons in vitro): increase of activity |
| CC(=O)Oc1ccccc1C(=O)O [Aspirin] | 43400 | not found on label | not found on label | No risk | 0.216 | – |
| O=C1Nc2ccc(Cl)cc2C(c2ccccc2Cl)=NC1O (stereo not drawn) [Lorazepam] | 22 | postmarketing — 0.769% | on label | Risk | 1.949 | – |
| CN1C(=O)CN=C(c2ccccc2)c2cc(Cl)ccc21 [Diazepam] | – | – | On label | – | – | hazard score group in Figure 3 [3]: Neuro Active to high hazard |
| CN1CCC[C@H]1c1cccnc1 [Nicotine] | 180 | not found on label | not found on label | – | – | hazard classification in the hazard scoring system [3]: non-neuroactive; hazard score group in Figure 3 [3]: Non-Neuro Active |
| NCC(=O)O [Glycine] | – | no frequency information | not found on label | – | – | hazard score group in Figure 3 [3]: Neuro Active to hazard |
| CNC1(c2ccccc2Cl)CCCCC1=O (stereo not drawn) [Ketamine] | 1740 | no frequency information | not found on label | Low risk | 1.967 | – |
| CCN(CC)C(=O)/C(C#N)=C/c1cc(O)c(O)c([N+](=O)[O-])c1 [Entacapone] | 130 | no frequency information | not found on label | Risk | 0.4204 | – |
| N#Cc1ccccc1-c1cc(-c2ccccn2)cn(-c2ccccc2)c1=O [Perampanel] | 163 | not found on label | not found on label | Low risk | 7.31 | hazard classification in the hazard scoring system [7]: hazards; also recorded: high hazard |
| CC(C)C[C@H]1C(=O)N2CCC[C@H]2[C@]2(O)O[C@](NC(=O)[C@@H]3C=C4c5cccc6[nH]c(Br)c(c56)C[C@H]4N(C)C3)(C(C)C)C(=O)N12 [Bromocriptine] | 1.4 | postmarketing | On label | Risk | 3.063 | – |
| Cc1ccc(C(=O)c2cc(O)c(O)c([N+](=O)[O-])c2)cc1 [Tolcapone] | 10 | not found on label | not found on label | No risk | 0.8264 | – |
| CC(C)C[C@H](CN)CC(=O)O [Pregabalin] | – | – | – | – | 0.8034 | hazard score group in Figure 3 [3]: Non-Neuro Active |
| CNCCC(Oc1ccc(C(F)(F)F)cc1)c1ccccc1 (stereo not drawn) [Fluoxetine] | 470 | uncommon | On label | Risk | 1.97 | – |
| NCc1cc(=O)[nH]o1 [Muscimol] | – | – | – | Risk | – | Area.Under.Cross.Correlation Lower.TI [7]: -100; Area.Under.Cross.Correlation Upper.TI [7]: -21.99; Burst.Duration...Avg.(s. Lower.TI) [7]: -100; Burst.Duration...Avg.(s. Upper.TI) [7]: 465.5; Mean.Firing.Rate..Hz. Lower.TI [7]: -100; Mean.Firing.Rate..Hz. Upper.TI [7]: -23.34; Median.Mean.ISI Lower.TI [7]: -100; Median.Mean.ISI Upper.TI [7]: 1.885 |
| Picrotoxin | – | – | – | Risk | – | Area.Under.Cross.Correlation Lower.TI [7]: -46.52; Area.Under.Cross.Correlation Upper.TI [7]: 62.45; Burst.Duration...Avg.(s. Lower.TI) [7]: -2.013; Burst.Duration...Avg.(s. Upper.TI) [7]: 280.4; Mean.Firing.Rate..Hz. Lower.TI [7]: -10.62; Mean.Firing.Rate..Hz. Upper.TI [7]: 76.43; Median.Mean.ISI Lower.TI [7]: -29.71; Median.Mean.ISI Upper.TI [7]: 0.6132 |
| NC(=O)C[S+]([O-])C(c1ccccc1)c1ccccc1 (stereo not drawn) [Modafinil] | 19600 | postmarketing | not found on label | Risk | 1.739 | – |
| CN1CCN(C2=Nc3ccccc3Oc3ccc(Cl)cc32)CC1 [Loxapine] | 44 | no frequency information | On label | Risk | 1.962 | – |
| C[N+](C)(C)CCOC(=O)CCC(=O)OCC[N+](C)(C)C [Succinylcholine] | 170 | not found on label | not found on label | No risk | 0.792 | – |
